Reference: PubChem BioAssay (NCI)
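Cells were grown in 96-well plates and exposed to each compound for 48 hours at five concentrations; endpoints were interpolated linearly between bracketing concentrations, or set to the highest concentration if not reached. TGI: total growth inhibition.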

Assays:
Assay in all cases: growth of human tumour cells (NCI), 48 h
786-0 renal = system: 786-0 renal
A498 renal = system: A498 renal
A549 NSCLC = system: A549 NSCLC
ACHN renal = system: ACHN renal
BT-549 breast = system: BT-549 breast
CAKI-1 renal = system: CAKI-1 renal
CCRF-CEM leukemia = system: CCRF-CEM leukemia
COLO 205 colon = system: COLO 205 colon
DU-145 prostate = system: DU-145 prostate
EKVX NSCLC = system: EKVX NSCLC
HCC-2998 colon = system: HCC-2998 colon
HCT-116 colon = system: HCT-116 colon
HCT-15 colon = system: HCT-15 colon
HL-60(TB) leukemia = system: HL-60(TB) leukemia
HOP-62 NSCLC = system: HOP-62 NSCLC
HS 578T breast = system: HS 578T breast
HT29 colon = system: HT29 colon
IGROV1 ovarian = system: IGROV1 ovarian
K-562 leukemia = system: K-562 leukemia
LOX IMVI melanoma = system: LOX IMVI melanoma
M14 melanoma = system: M14 melanoma
MALME-3M melanoma = system: MALME-3M melanoma
MCF7 breast = system: MCF7 breast
MDA-MB-231 breast = system: MDA-MB-231 breast
MDA-MB-435 = system: MDA-MB-435
MDA-N = system: MDA-N
MOLT-4 leukemia = system: MOLT-4 leukemia
NCI-H226 lung = system: NCI-H226 lung
NCI-H23 lung = system: NCI-H23 lung
NCI-H460 lung = system: NCI-H460 lung
NCI-H522 lung = system: NCI-H522 lung
NCI/ADR-RES ovarian = system: NCI/ADR-RES ovarian
OVCAR-3 ovarian = system: OVCAR-3 ovarian
OVCAR-4 ovarian = system: OVCAR-4 ovarian
OVCAR-5 ovarian = system: OVCAR-5 ovarian
OVCAR-8 ovarian = system: OVCAR-8 ovarian
PC-3 prostate = system: PC-3 prostate
RPMI-8226 leukemia = system: RPMI-8226 leukemia
RXF 393 renal = system: RXF 393 renal
SF-268 CNS = system: SF-268 CNS
SF-295 CNS = system: SF-295 CNS
SF-539 CNS = system: SF-539 CNS
SK-MEL-2 melanoma = system: SK-MEL-2 melanoma
SK-MEL-28 melanoma = system: SK-MEL-28 melanoma
SK-MEL-5 melanoma = system: SK-MEL-5 melanoma
SK-OV-3 ovarian = system: SK-OV-3 ovarian
SN12C renal = system: SN12C renal
SNB-19 CNS = system: SNB-19 CNS
SR leukemia = system: SR leukemia
SW-620 colon = system: SW-620 colon
T-47D breast = system: T-47D breast
TK-10 renal = system: TK-10 renal
U251 CNS = system: U251 CNS
UACC-257 melanoma = system: UACC-257 melanoma
UACC-62 melanoma = system: UACC-62 melanoma

Measured: TGI

COC(=O)/C=C/[C@@H]1[C@H](C)N1S(=O)(=O)c1ccc(C)cc1 (stereo not given in full)
> 100 µM: all assays above
